Source: patent US20080227851A1, “L[…] L[…]” (priority 2007, published 2008)
≈ marks a conversion by molar mass, not a printed value.

How the values were obtained:
SKVLB-1 = conditions: cited from earlier work; for Resistance factor (SKVLB-1/SK-OV-3): ratio of IC50 SKVLB-1/SK-OV-3
MDA-MB-435 = conditions: cited from earlier work
[1] = tested on: SK-OV-3 (ovarian carcinoma) cell line; conditions: cited from earlier work
tubulin polymer = conditions: radiolabeled Taxol; cited from earlier work
[2] = 0.01 N solution of HCl in acetone; cited from earlier work
[3] = tested on: human umbilical vein endothelial cells (HUVEC); conditions: cited from earlier work
[4] = tested on: human umbilical vein endothelial cells (HUVEC); conditions: read-out: IC50, inhibition of HUVEC proliferation; cited from earlier work
[5] = tested on: MDA-MB-435 (human breast adenocarcinoma) cell line; conditions: cited from earlier work
purified tubulin = conditions: cited from earlier work
KB cells = conditions: cited from earlier work
A10 cells = conditions: 2-20 μM; cited from earlier work
[6] = tested on: human breast carcinoma MDA-MB-435; assay: sulforhodamine assay, proliferation of human tumor cells, MDA-MB-435; format: cell-based; conditions: MDA-MB-435, sulforhodamine assay
Experimental: Laulimalide analogs disclosed herein were evaluated for the ability to inhibit the proliferation of human tumor cells using the sulforhodamine assay format (Mooberry et al., Cancer Research, 1999, 59, 653-660). The two cells lines selected were the human breast carcinoma MDA-MB-435 and the corresponding MDR cell line NCI/ADR, which overexpresses the PGP efflux pump protein.

[7] = SKVLB-1 (P-gp overexpressing MDR)

In the case of `CC(=O)O[C@H]1C(=O)[C@@]2(C)[C@H]([C@H](OC(=O)c3ccccc3)[C@]3(O)C[C@H](OC(=O)[C@H](O)[C@@H](NC(=O)c4ccccc4)c4ccccc4)C(C)=C1C3(C)C)[C@]1(OC(C)=O)CO[C@@H]1C[C@@H]2O` [Taxol, paclitaxel], the IC50 (SKVLB-1; [7]) is listed as over 100000 nM, the “IC50 (nM)” value (SKVLB-1; [7]) is listed as “completely ineffective” and the “Resistance factor (SKVLB-1/SK-OV-3)” value (SKVLB-1) is listed as over 58480. For the same compound, the IC50 (MDA-MB-435) was 1.02 ± 0.25 nM and the IC50 [1] was 1.71 ± 1.07 nM.
For `C=C1C[C@H](C)C[C@@H]2CC=C[C@@H](C/C=C\C(=O)O[C@H]([C@@H](O)/C=C/[C@@H]3CC(C)=CCO3)C[C@@H]3O[C@H]3[C@@H](O)C1)O2` [Laulimalide, laulimalide], the “competition with Taxol binding to tubulin polymer” value (tubulin polymer) is given as “does not compete with Taxol”, the “time to complete acid-catalyzed decomposition to isolaulimalide” value [2] is given as “four” and the “concentration inhibiting tubule formation and VEGF-induced HUVEC migration” value [3] is given as “subnanomolar”. For the same compound, the IC50 [4] was 4 nM, the IC50 (SKVLB-1; [7]) was 1210 ± 490 nM and the “Resistance factor (SKVLB-1/SK-OV-3)” value (SKVLB-1) was 105. For the same compound, the IC50 (MDA-MB-435) was 5.73 ± 0.58 nM, the cell cycle arrest [5] was “cell cycle arrest at the G2/M transition” and the “polymerization of purified tubulin” value (purified tubulin) was “caused the polymerization of purified tubulin”. The “IC50, cytotoxic to KB cells” value (KB cells) was 0.015 µg/mL (≈ 0.0291 µM), the microtubule bundling (A10 cells) was “caused bundling of microtubules similar to that induced by Taxol” and the IC50 [6] was 5.7 ± 0.6 nM. The IC50 [1] was 11.5 ± 0.53 nM.
In the case of `C=C1C[C@H](C)C[C@@H]2CC=C[C@@H](C/C=C\C(=O)O[C@H]3C[C@@H](O[C@H]3/C=C/[C@@H]3CC(C)=CCO3)[C@@H](O)[C@@H](O)C1)O2` [Isolaulimalide, isolaulimalide], the IC50 (SKVLB-1; [7]) is given as 2650 ± 1380 nM, the “Resistance factor (SKVLB-1/SK-OV-3)” value (SKVLB-1) is given as 1.03 and the IC50 (MDA-MB-435) is given as 1970 ± 97 nM. The “IC50, cytotoxic to KB cells” value (KB cells) was over 0.2 µg/mL, the microtubule bundling (A10 cells) was “no microtubule bundles were observed” and the IC50 [1] was 2570 ± 290 nM.
